Experimental data taken from PubChem BioAssay AID1963835 (Molecular Pharmacology Branch, DTP, NCI, 2024).

Tested on: 699152-130-R-J1-PDC complex spheroid viability
Test: Anticancer human tumor 699152-130-R-J1-PDC patient-derived pancreatic carcinoma cell line growth inhibition [POLQ]
Settings: for IC50: curve of first compound; for viability, T/C: stronger effect = lower value
Outline: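 PDC + HUVEC + MSC complex spheroids; POLQ inhibitors ± partner drugs; top conc. at/near clinical Cmax, else 10 microM (SN-38 1 microM), half-log dilutions; 37 degrees C, 5% CO2.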

[1] = second compound 0.0316 µM, first compound 0.0316 µM
[2] = second compound 0.0316 µM, first compound 0.1 µM
[3] = second compound 0.0316 µM, first compound 0.316 µM
[4] = second compound 0.0316 µM, first compound 1 µM
[5] = second compound 0.0316 µM, first compound 3.16 µM
[6] = second compound 0.0316 µM, first compound 10 µM
[7] = second compound 0.1 µM, first compound 0.0316 µM
[8] = second compound 0.1 µM, first compound 0.1 µM
[9] = second compound 0.1 µM, first compound 0.316 µM
[10] = second compound 0.1 µM, first compound 1 µM
[11] = second compound 0.1 µM, first compound 3.16 µM
[12] = second compound 0.1 µM, first compound 10 µM
[13] = second compound 0.316 µM, first compound 0.0316 µM
[14] = second compound 0.316 µM, first compound 0.1 µM
[15] = second compound 0.316 µM, first compound 0.316 µM
[16] = second compound 0.316 µM, first compound 1 µM
[17] = second compound 0.316 µM, first compound 3.16 µM
[18] = second compound 0.316 µM, first compound 10 µM
[19] = second compound 1 µM, first compound 0.0316 µM
[20] = second compound 1 µM, first compound 0.1 µM
[21] = second compound 1 µM, first compound 0.316 µM
[22] = second compound 1 µM, first compound 1 µM
[23] = second compound 1 µM, first compound 3.16 µM
[24] = second compound 1 µM, first compound 10 µM
[25] = second compound 3.16 µM, first compound 0.0316 µM
[26] = second compound 3.16 µM, first compound 0.1 µM
[27] = second compound 3.16 µM, first compound 0.316 µM
[28] = second compound 3.16 µM, first compound 1 µM
[29] = second compound 3.16 µM, first compound 3.16 µM
[30] = second compound 3.16 µM, first compound 10 µM
[31] = second compound 10 µM, first compound 0.0316 µM
[32] = second compound 10 µM, first compound 0.1 µM
[33] = second compound 10 µM, first compound 0.316 µM
[34] = second compound 10 µM, first compound 1 µM
[35] = second compound 10 µM, first compound 3.16 µM
[36] = second compound 10 µM, first compound 10 µM
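Also: spheroids exposed to agents for 7 days before viability reading.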
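For viability, T/C in this document: percent of DMSO vehicle control viability so 100% = vehicle and 0% = no viable signal.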

`CC1COCCN1c1cc(C2(O)CC3CCC(C2)O3)c2cnn(-c3ccn[nH]3)c2n1` (stereo unspecified) + Nc1ccc(C#CCN(C(=O)Cc2ncc(C(F)(F)F)cc2C(F)(F)F)c2ccc(F)cc2)nn1 gave an IC50 (second compound 0.0316 µM) of 1490 nM, an IC50 (second compound 0.1 µM) of 2700 nM and an IC50 (second compound 0.316 µM) of 1500 nM. The IC50 (second compound 1 µM) was 1380 nM, the IC50 (second compound 3.16 µM) was 1520 nM and the IC50 (second compound 10 µM) was 2210 nM. It also gave a viability, T/C [1] of 85.6%, a viability, T/C [2] of 81.3% and a viability, T/C [3] of 60.7%. The viability, T/C [4] was 56.8%, the viability, T/C [5] was 42.5% and the viability, T/C [6] was 35.1%. For the same compound, the viability, T/C [7] was 86.6%, the viability, T/C [8] was 79.1% and the viability, T/C [9] was 68.1%. The viability, T/C [10] was 61.3%, the viability, T/C [11] was 48.6% and the viability, T/C [12] was 36.2%. It also gave a viability, T/C [13] of 94.9%, a viability, T/C [14] of 85.7% and a viability, T/C [15] of 66.8%. It also gave a viability, T/C [16] of 53.6%, a viability, T/C [17] of 44.8% and a viability, T/C [18] of 35.9%. For the same compound, the viability, T/C [19] was 104%, the viability, T/C [20] was 83.5% and the viability, T/C [21] was 67.2%. It also gave a viability, T/C [22] of 53.2%, a viability, T/C [23] of 42.5% and a viability, T/C [24] of 30.6%. It also gave a viability, T/C [25] of 100%, a viability, T/C [26] of 84.6% and a viability, T/C [27] of 65.5%. The viability, T/C [28] was 51%, the viability, T/C [29] was 48.9% and the viability, T/C [30] was 40.3%. The viability, T/C [31] was 104%, the viability, T/C [32] was 90.9% and the viability, T/C [33] was 65.2%. For the same compound, the viability, T/C [34] was 56.8%, the viability, T/C [35] was 51.5% and the viability, T/C [36] was 37.1%.

`O=C(Nc1ccc(O)c(NS(=O)(=O)c2ccc(F)cc2)c1)c1ccc(-c2ccccc2)cc1` + Nc1ccc(C#CCN(C(=O)Cc2ncc(C(F)(F)F)cc2C(F)(F)F)c2ccc(F)cc2)nn1 was tested, and the IC50 (second compound 0.0316 µM) was > 10000 nM, the IC50 (second compound 0.1 µM) was > 10000 nM and the IC50 (second compound 0.316 µM) was > 10000 nM. The IC50 (second compound 1 µM) was > 10000 nM, the IC50 (second compound 3.16 µM) was > 10000 nM and the IC50 (second compound 10 µM) was > 10000 nM. For the same compound, the viability, T/C [1] was 101%, the viability, T/C [2] was 95.9% and the viability, T/C [3] was 98.2%. It also gave a viability, T/C [4] of 111%, a viability, T/C [5] of 100% and a viability, T/C [6] of 62.8%. For the same compound, the viability, T/C [7] was 89.5%, the viability, T/C [8] was 102% and the viability, T/C [9] was 95.2%. The viability, T/C [10] was 103%, the viability, T/C [11] was 102% and the viability, T/C [12] was 59.4%. For the same compound, the viability, T/C [13] was 116%, the viability, T/C [14] was 108% and the viability, T/C [15] was 114%. The viability, T/C [16] was 101%, the viability, T/C [17] was 110% and the viability, T/C [18] was 68.8%. The viability, T/C [19] was 108%, the viability, T/C [20] was 103% and the viability, T/C [21] was 104%. The viability, T/C [22] was 102%, the viability, T/C [23] was 102% and the viability, T/C [24] was 64.7%. For the same compound, the viability, T/C [25] was 104%, the viability, T/C [26] was 103% and the viability, T/C [27] was 103%. For the same compound, the viability, T/C [28] was 107%, the viability, T/C [29] was 112% and the viability, T/C [30] was 67.9%. The viability, T/C [31] was 110%, the viability, T/C [32] was 122% and the viability, T/C [33] was 114%. The viability, T/C [34] was 103%, the viability, T/C [35] was 109% and the viability, T/C [36] was 59.3%.

For `COc1cccc2c1C(=O)c1c(O)c3c(c(O)c1C2=O)CC(O)(C(=O)CO)CC3OC1CC(N)C(O)C(C)O1` (stereo unspecified) + Nc1ccc(C#CCN(C(=O)Cc2ncc(C(F)(F)F)cc2C(F)(F)F)c2ccc(F)cc2)nn1, the IC50 (second compound 0.0316 µM) was 353 nM, the IC50 (second compound 0.1 µM) was 409 nM and the IC50 (second compound 0.316 µM) was 377 nM. The IC50 (second compound 1 µM) was 205 nM, the IC50 (second compound 3.16 µM) was 263 nM and the IC50 (second compound 10 µM) was 419 nM. For the same compound, the viability, T/C [1] was 78%, the viability, T/C [2] was 61.9% and the viability, T/C [3] was 51.9%. It also gave a viability, T/C [4] of 36.6%, a viability, T/C [5] of 2.41% and a viability, T/C [6] of 9.62%. For the same compound, the viability, T/C [7] was 76.7%, the viability, T/C [8] was 69.8% and the viability, T/C [9] was 51.9%. It also gave a viability, T/C [10] of 37.5%, a viability, T/C [11] of 3% and a viability, T/C [12] of 7.86%. For the same compound, the viability, T/C [13] was 78.9%, the viability, T/C [14] was 73.3% and the viability, T/C [15] was 49.7%. For the same compound, the viability, T/C [16] was 35.7%, the viability, T/C [17] was 5.24% and the viability, T/C [18] was 9.53%. It also gave a viability, T/C [19] of 85%, a viability, T/C [20] of 57.9% and a viability, T/C [21] of 46.7%. The viability, T/C [22] was 28.6%, the viability, T/C [23] was 1.69% and the viability, T/C [24] was 12.1%. The viability, T/C [25] was 85.2%, the viability, T/C [26] was 61.8% and the viability, T/C [27] was 51.2%. The viability, T/C [28] was 28.4%, the viability, T/C [29] was 2.48% and the viability, T/C [30] was 10.9%. The viability, T/C [31] was 80.6%, the viability, T/C [32] was 72% and the viability, T/C [33] was 56.1%. It also gave a viability, T/C [34] of 31.9%, a viability, T/C [35] of 3.65% and a viability, T/C [36] of 10.6%.
